37 compounds from patent publication US9657014B2, “Substituted 1,6-naphthyridines” (Hoffmann-La Roche Inc., priority 2012, dated 2017) can be followed below.

Molecules are shown by their SMILES.

In this test the test system is human embryonic stem cell derived neural stem cells (NSCs). Nature of the test: Neural stem cell proliferation assay (neurogenesis assay). It counts as cell-based. Particulars: Homo sapiens, Neural stem cell, 96 h; Table 1, novel compounds; concentration at which 150% activity of control (100%) is reached; ATP levels (CellTiterGlo) after 4 days incubation. Here is the method: Neural Stem Cell Proliferation Assay
Neurogenic properties of small molecules are determined based on the proliferation of human embryonic stem cell derived neural stem cells (NSCs) which were derived via a dual smad inhibition as previously described (Chambers, S. M., et al., Highly efficient neural conversion of human ES and iPS cells by dual inhibition of SMAD signaling, Nature biotechnology, 2009. 27 (3): p. 275-80.)
Compounds respond is measured by the increase in cells based on ATP levels (Promega:CellTiterGlo®) after an incubation period of 4 days.
NSCs are thawed and expanded over 3 passages. On the 14th day, NSCs are seeded in Polyornithin/Laminin coated 384 well plates at a cell density of 21,000 cells/cm^2 in a media volume of 38 μl.
4 hours after cell seeding, compound solutions are added at a volume of 2 μl. Stock solutions of the compounds (water, 5% DMSO) are diluted to obtain a dose response (11 points, dilution factor is 2), ranging from 8 μM to 8 nM. Controls are run to consistently determine the neurogenic properties of the cells:
Negative (neutral) control is cell culture Media (final DMSO concentration: 0.25%).
Positive controls are: • 1. cell culture Media+100 ng/ml FGF2 (final DMSO concentration: 0.1%) • 2. cell culture Media+20 ng/ml EGF (final DMSO concentration: 0.1%) • 3. cell culture Media+100 ng/ml Wnt3a (final DMSO concentration: 0.1%)
After 4 days incubation at 37° C., 5% CO2, the amount of ATP per well is quantified. The ATP concentration is proportional to the cell number. ATP is quantified by using the Promega CellTiterGlo® kit. The CellTiterGlo® reagents contain a cell lysis buffer, a thermo stable luciferase (UltraGlo™ recombinant luciferase), magnesium and luciferin. Luciferin reacts with ATP producing oxyluciferin, AMP and light. The luminescence signal is proportional to the ATP content.
The value of negative (neutral) control is determined for each assay plate by taking the average of 16 negative control wells. The neurogenic compound response is calculated for each compound as (compound/Negative Control)*100.
The values of EC150 from the dose response curve are determined for each test compound. The EC150 is the compound concentration at which 150% activity of control (100%) is reached.
Background: Cellular ATP, detected with luciferase, serves as a proxy for viable cell number.
Take `CC(NC(=O)c1ccc2cncc(-c3ccc(Cl)cc3)c2n1)c1cccc(S(C)(=O)=O)c1` (single isomer, unassigned; (-)) [Example 52, (−)-8-(4-Chloro-phenyl)-[1,6]naphthyridine-2-carboxylic acid [(S or R)-1-(3-methanesulfonyl-phenyl)-ethyl]-amide]: the EC (150% of control) is 0.8 µM.

`COCCNC(=O)c1ccc2cncc(Br)c2n1` [Example 1, 8-Bromo-N-(2-methoxyethyl)-1,6-naphthyridine-2-carboxamide] had an EC (150% of control) of 1.2 µM.

`COCCNC(=O)c1ccc2cncc(-c3ccc(OC)cc3)c2n1` [Example 2, N-(2-Methoxyethyl)-8-(4-methoxyphenyl)-1,6-naphthyridine-2-carboxamide]: the EC (150% of control) was determined as 0.03 µM.

The compound `COCCNC(=O)c1ccc2cncc(-c3cccc(OC)c3)c2n1` [Example 3, N-(2-Methoxyethyl)-8-(3-methoxyphenyl)-1,6-naphthyridine-2-carboxamide] displayed an EC (150% of control) of 0.26 µM.

On to `COCCNC(=O)c1ccc2cnccc2n1` [Example 4, N-(2-Methoxyethyl)-1,6-naphthyridine-2-carboxamide], for which the EC (150% of control) was found to be 0.5 µM.

Regarding `COCCNC(=O)c1ccc2cncc(-c3ccccc3OC)c2n1` [Example 5, N-(2-Methoxyethyl)-8-(2-methoxyphenyl)-1,6-naphthyridine-2-carboxamide], the EC (150% of control) stood at 0.26 µM.

`COCCNC(=O)c1ccc2cncc(-c3ccc(Cl)cc3)c2n1` [Example 6, 8-(4-Chlorophenyl)-N-(2-methoxyethyl)-1,6-naphthyridine-2-carboxamide]: the EC (150% of control) stood at 0.02 µM.

In the case of `COCCNC(=O)c1ccc2cncc(-c3cccc(Cl)c3)c2n1` [Example 7, 8-(3-Chlorophenyl)-N-(2-methoxyethyl)-1,6-naphthyridine-2-carboxamide], the EC (150% of control) worked out at 0.32 µM.

In turn, `COCCNC(=O)c1ccc2cncc(-c3ccccc3Cl)c2n1` [Example 8, 8-(2-Chlorophenyl)-N-(2-methoxyethyl)-1,6-naphthyridine-2-carboxamide] yielded an EC (150% of control) of 0.33 µM.

As for `O=C(NCc1ccncc1)c1ccc2cncc(Br)c2n1` [Example 9, 8-Bromo-[1,6]naphthyridine-2-carboxylic acid (pyridin-4-ylmethyl)-amide], the EC (150% of control) stood at 1.27 µM.

Take `O=C(NCc1ccccc1)c1ccc2cncc(Br)c2n1` [Example 10, N-Benzyl-8-bromo-1,6-naphthyridine-2-carboxamide]: the EC (150% of control) was found to be 0.76 µM.

In the case of `COc1cccc(-c2cncc3ccc(C(=O)NCc4ccccc4)nc23)c1` [Example 11, N-Benzyl-8-(3-methoxyphenyl)-1,6-naphthyridine-2-carboxamide], the EC (150% of control) turned out to be 0.03 µM.

Turning to `COc1ccccc1-c1cncc2ccc(C(=O)NCc3ccccc3)nc12` [Example 12, N-Benzyl-8-(2-methoxyphenyl)-1,6-naphthyridine-2-carboxamide], the EC (150% of control) was found to be 0.17 µM.

For the compound `O=C(NCc1ccccc1)c1ccc2cncc(-c3ccc(Cl)cc3)c2n1` [Example 13, N-Benzyl-8-(4-chlorophenyl)-1,6-naphthyridine-2-carboxamide], the EC (150% of control) was found to be 0.05 µM.

`O=C(NCc1ccccc1)c1ccc2cncc(-c3cccc(Cl)c3)c2n1` [Example 14, N-Benzyl-8-(3-chlorophenyl)-1,6-naphthyridine-2-carboxamide] registered an EC (150% of control) of 0.54 µM.

Consider `O=C(NCc1ccccc1)c1ccc2cncc(-c3ccccc3Cl)c2n1` [Example 15, N-Benzyl-8-(2-chlorophenyl)-1,6-naphthyridine-2-carboxamide], for which the EC (150% of control) worked out at 0.58 µM.

Compound `O=C(NCc1ccccc1)c1ccc2cncc(-c3ccncc3)c2n1` [Example 16, N-Benzyl-8-(pyridin-4-yl)-1,6-naphthyridine-2-carboxamide] came in with an EC (150% of control) of 0.04 µM.

The compound `O=C(NCc1ccccc1)c1ccc2cncc(-c3cccnc3)c2n1` [Example 17, N-Benzyl-8-(pyridin-3-yl)-1,6-naphthyridine-2-carboxamide] gave an EC (150% of control) of 0.11 µM.

`COCCNC(=O)c1ccc2cncc(-c3ccncc3)c2n1` [Example 18, N-(2-Methoxyethyl)-8-(pyridin-4-yl)-1,6-naphthyridine-2-carboxamide] came in with an EC (150% of control) of 0.31 µM.

Take `COCCNC(=O)c1ccc2cncc(-c3cccnc3)c2n1` [Example 19, N-(2-methoxyethyl)-8-(pyridin-3-yl)-1,6-naphthyridine-2-carboxamide]: the EC (150% of control) turned out to be 0.49 µM.

Turning to `COc1ccc(-c2cncc3ccc(C(=O)NCCc4ccccc4)nc23)cc1` [Example 20, 8-(4-Methoxyphenyl)-N-phenethyl-1,6-naphthyridine-2-carboxamide], the EC (150% of control) was determined as 0.8 µM.

In the case of `COc1ccc(-c2cncc3ccc(C(N)=O)nc23)cc1` [Example 21, 8-(4-Methoxyphenyl)-1,6-naphthyridine-2-carboxamide], the EC (150% of control) was determined as 0.01 µM.

In turn, `COc1ccc(-c2cncc3ccc(C(=O)NCc4cccnc4)nc23)cc1` [Example 22, 8-(4-Methoxyphenyl)-N-(pyridin-3-ylmethyl)-1,6-naphthyridine-2-carboxamide] came in with an EC (150% of control) of 0.03 µM.

`COc1ccc(-c2cncc3ccc(C(=O)NCc4ccccn4)nc23)cc1` [Example 23, 8-(4-Methoxyphenyl)-N-(pyridin-2-ylmethyl)-1,6-naphthyridine-2-carboxamide] returned an EC (150% of control) of 0.03 µM.

`Cc1ccnc(-c2cncc3ccc(C(=O)NCc4ccccc4)nc23)c1` [Example 24, N-Benzyl-8-(4-methylpyridin-2-yl)-1,6-naphthyridine-2-carboxamide] displayed an EC (150% of control) of 0.94 µM.

For `COc1ccc(-c2cncc3ccc(C(=O)NCCCc4ccccc4)nc23)cc1` [Example 25, 8-(4-Methoxyphenyl)-N-(3-phenylpropyl)-1,6-naphthyridine-2-carboxamide], the EC (150% of control) stood at 0.67 µM.

Consider `COc1cccc(-c2cncc3ccc(C(=O)NCc4ccncc4)nc23)c1` [Example 26, 8-(3-Methoxyphenyl)-N-(pyridin-4-ylmethyl)-1,6-naphthyridine-2-carboxamide], for which the EC (150% of control) turned out to be 0.28 µM.

In turn, `COc1ccccc1-c1cncc2ccc(C(=O)NCc3ccncc3)nc12` [Example 27, 8-(2-Methoxyphenyl)-N-(pyridin-4-ylmethyl)-1,6-naphthyridine-2-carboxamide] gave an EC (150% of control) of 0.56 µM.

Consider `O=C(NCc1ccncc1)c1ccc2cncc(-c3ccc(Cl)cc3)c2n1` [Example 28, 8-(4-Chlorophenyl)-N-(pyridin-4-ylmethyl)-1,6-naphthyridine-2-carboxamide], for which the EC (150% of control) was found to be 0.1 µM.

The compound `O=C(NCc1ccncc1)c1ccc2cncc(-c3cccc(Cl)c3)c2n1` [Example 29, 8-(3-Chlorophenyl)-N-(pyridin-4-ylmethyl)-1,6-naphthyridine-2-carboxamide] returned an EC (150% of control) of 0.51 µM.

In the case of `O=C(NCc1ccncc1)c1ccc2cncc(-c3ccccc3Cl)c2n1` [Example 30, 8-(2-Chlorophenyl)-N-(pyridin-4-ylmethyl)-1,6-naphthyridine-2-carboxamide], the EC (150% of control) was determined as 0.49 µM.

For `O=C(NCc1ccncc1)c1ccc2cncc(-c3cccnc3)c2n1` [Example 31, 8-(Pyridin-3-yl)-N-(pyridin-4-ylmethyl)-1,6-naphthyridine-2-carboxamide], the EC (150% of control) came out at 0.54 µM.

Consider `O=C(NCc1ccncc1)c1ccc2cncc(-c3ccncc3)c2n1` [Example 32, 8-(Pyridin-4-yl)-N-(pyridin-4-ylmethyl)-1,6-naphthyridine-2-carboxamide], for which the EC (150% of control) was determined as 0.29 µM.

As for `COc1ccc(-c2cncc3ccc(C(=O)N(C)Cc4ccccc4)nc23)cc1` [Example 33, N-Benzyl-8-(4-methoxyphenyl)-N-methyl-1,6-naphthyridine-2-carboxamide], the EC (150% of control) was 0.22 µM.

For `COCCN(Cc1ccccc1)C(=O)c1ccc2cncc(-c3ccc(OC)cc3)c2n1` [Example 34, N-Benzyl-N-(2-methoxyethyl)-8-(4-methoxyphenyl)-1,6-naphthyridine-2-carboxamide], the EC (150% of control) stood at 0.21 µM.

Consider `COc1ccc(-c2cncc3ccc(C(=O)NCCC(F)(F)F)nc23)cc1` [Example 35, 8-(4-Methoxyphenyl)-N-(3,3,3-trifluoropropyl)-1,6-naphthyridine-2-carboxamide], for which the EC (150% of control) was found to be 1.74 µM.

`O=C(NCCCn1ccnc1)c1ccc2cncc(-c3cccc(Cl)c3)c2n1` [Example 36, N-(3-(1H-Imidazol-1-yl)propyl)-8-(3-chlorophenyl)-1,6-naphthyridine-2-carboxamide]: the EC (150% of control) was 1.04 µM.
